The target of experiment [1] is T1, Ubiquitin carboxyl-terminal hydrolase isozyme L3 (Homo sapiens) (UniProt P15374).
T1 sequence (whole entry): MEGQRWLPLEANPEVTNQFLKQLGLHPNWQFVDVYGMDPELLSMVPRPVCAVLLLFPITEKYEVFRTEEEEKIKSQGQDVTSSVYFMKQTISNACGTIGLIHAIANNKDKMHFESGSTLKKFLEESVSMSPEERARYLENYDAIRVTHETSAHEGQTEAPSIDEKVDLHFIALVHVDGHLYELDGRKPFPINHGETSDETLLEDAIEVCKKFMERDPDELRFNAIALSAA
Put plainly: Inhibition of UCHL3 (unknown origin) expressed in Escherichia coli BL21 (DE3) using Ub-AMC as substrate at 5 uM by fluorescence based analysis.

Experiment [2] concerns the target Ubiquitin carboxyl-terminal hydrolase 9X (Homo sapiens) (UniProt Q93008). Put plainly: Inhibition of USP9X (1151 to 1970 residues) (unknown origin) expressed in Escherichia coli BL21 (DE3) using Ub-AMC as substrate at 5 uM by fluorescence based analysis.
Experiment [3] concerns the target T2, Ubiquitin carboxyl-terminal hydrolase 25 (Homo sapiens) (UniProt Q9UHP3).
T2 sequence (whole entry): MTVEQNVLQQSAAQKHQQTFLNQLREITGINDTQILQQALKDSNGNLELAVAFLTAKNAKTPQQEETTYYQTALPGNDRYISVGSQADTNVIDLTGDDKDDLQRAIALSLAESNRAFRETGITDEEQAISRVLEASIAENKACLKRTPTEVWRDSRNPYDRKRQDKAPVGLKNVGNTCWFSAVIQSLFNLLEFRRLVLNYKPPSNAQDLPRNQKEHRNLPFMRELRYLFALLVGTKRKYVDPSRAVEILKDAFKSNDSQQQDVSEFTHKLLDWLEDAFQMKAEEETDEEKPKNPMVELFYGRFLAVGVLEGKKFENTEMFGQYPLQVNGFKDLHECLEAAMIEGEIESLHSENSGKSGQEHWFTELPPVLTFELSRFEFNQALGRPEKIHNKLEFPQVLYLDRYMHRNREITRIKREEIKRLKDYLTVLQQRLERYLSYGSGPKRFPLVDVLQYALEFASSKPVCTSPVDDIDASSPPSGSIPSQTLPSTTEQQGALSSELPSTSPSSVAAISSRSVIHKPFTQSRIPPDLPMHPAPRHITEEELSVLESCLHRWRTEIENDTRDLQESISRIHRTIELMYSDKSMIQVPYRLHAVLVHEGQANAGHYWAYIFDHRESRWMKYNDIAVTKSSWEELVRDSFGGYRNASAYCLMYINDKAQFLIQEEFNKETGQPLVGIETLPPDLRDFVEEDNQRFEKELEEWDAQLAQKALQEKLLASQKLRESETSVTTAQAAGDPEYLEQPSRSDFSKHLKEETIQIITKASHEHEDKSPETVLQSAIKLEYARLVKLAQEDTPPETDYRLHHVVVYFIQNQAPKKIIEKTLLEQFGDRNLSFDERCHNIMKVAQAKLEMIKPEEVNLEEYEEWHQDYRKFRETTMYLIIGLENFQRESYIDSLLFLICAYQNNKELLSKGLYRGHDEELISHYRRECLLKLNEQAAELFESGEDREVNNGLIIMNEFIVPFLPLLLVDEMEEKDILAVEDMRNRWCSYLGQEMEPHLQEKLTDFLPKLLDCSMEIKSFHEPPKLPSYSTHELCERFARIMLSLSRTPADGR
Put plainly: Inhibition of USP25 in human HCT-116 cells assessed as downregulation of Tankyrase 1/2 protein level. It counts as cell-based.

Experiment [4] deals with LS174T. Put plainly: Antiproliferative activity against human LS174T cells assessed as effect on Bcl-2 protein level at 20 to 60 uM incubated for 1 day by western blotting analysis. The class given is functional, cell-based. To be noted: dose 20-60 µM. Background: In western blotting, separated proteins are transferred to a membrane and probed.
The target of experiment [5] is T2, Ubiquitin carboxyl-terminal hydrolase 25 (Homo sapiens). Put plainly: Inhibition of USP25 (unknown origin) expressed in Escherichia coli BL21 (DE3) using Ub-AMC as substrate at 5 uM by fluorescence based analysis.
Experiment [6] has as its target T3, Ubiquitin carboxyl-terminal hydrolase 28 (Homo sapiens, UniProt Q96RU2).
T3 sequence (Q96RU2 whole entry): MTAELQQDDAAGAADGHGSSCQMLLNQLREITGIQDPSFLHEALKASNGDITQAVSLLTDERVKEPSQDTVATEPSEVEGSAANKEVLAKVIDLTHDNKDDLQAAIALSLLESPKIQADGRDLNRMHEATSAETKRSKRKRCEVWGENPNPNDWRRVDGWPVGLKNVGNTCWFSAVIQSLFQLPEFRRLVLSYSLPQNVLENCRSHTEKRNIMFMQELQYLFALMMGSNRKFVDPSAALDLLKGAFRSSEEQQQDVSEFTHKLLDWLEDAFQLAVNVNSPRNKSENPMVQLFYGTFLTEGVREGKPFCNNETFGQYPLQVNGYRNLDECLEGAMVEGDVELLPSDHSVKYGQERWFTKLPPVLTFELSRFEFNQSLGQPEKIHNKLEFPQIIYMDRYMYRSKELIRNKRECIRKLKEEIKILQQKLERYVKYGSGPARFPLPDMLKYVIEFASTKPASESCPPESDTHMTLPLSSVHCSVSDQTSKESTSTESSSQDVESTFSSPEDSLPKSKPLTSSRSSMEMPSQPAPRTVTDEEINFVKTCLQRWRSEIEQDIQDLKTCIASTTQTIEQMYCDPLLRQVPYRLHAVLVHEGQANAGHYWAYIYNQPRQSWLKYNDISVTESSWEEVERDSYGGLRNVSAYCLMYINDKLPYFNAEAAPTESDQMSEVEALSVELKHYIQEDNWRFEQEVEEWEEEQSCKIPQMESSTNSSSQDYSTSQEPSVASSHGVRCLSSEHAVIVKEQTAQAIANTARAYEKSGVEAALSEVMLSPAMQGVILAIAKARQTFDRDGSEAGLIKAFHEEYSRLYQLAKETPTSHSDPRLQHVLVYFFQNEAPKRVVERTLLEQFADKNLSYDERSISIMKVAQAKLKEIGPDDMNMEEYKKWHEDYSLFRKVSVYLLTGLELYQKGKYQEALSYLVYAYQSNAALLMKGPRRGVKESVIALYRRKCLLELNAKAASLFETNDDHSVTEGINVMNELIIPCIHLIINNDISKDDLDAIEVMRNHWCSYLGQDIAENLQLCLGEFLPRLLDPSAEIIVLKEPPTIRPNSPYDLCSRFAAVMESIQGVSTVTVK
The experiment in a line: Inhibition of USP28 (149 to 703 residues) (unknown origin) expressed in Escherichia coli BL21 (DE3) using Ub-AMC as substrate by fluorescence based analysis.

Active and inactive are the calls of the source. No cut-off for these calls is given here.

As usually defined, the IC50 is the point on the concentration scale where inhibition reaches its midpoint. The low end stands for greater potency, the high end for weaker potency.

Chain of Ubiquitin carboxyl-terminal hydrolase 9X (Homo sapiens) (Q93008 whole entry, the tested form may be a part): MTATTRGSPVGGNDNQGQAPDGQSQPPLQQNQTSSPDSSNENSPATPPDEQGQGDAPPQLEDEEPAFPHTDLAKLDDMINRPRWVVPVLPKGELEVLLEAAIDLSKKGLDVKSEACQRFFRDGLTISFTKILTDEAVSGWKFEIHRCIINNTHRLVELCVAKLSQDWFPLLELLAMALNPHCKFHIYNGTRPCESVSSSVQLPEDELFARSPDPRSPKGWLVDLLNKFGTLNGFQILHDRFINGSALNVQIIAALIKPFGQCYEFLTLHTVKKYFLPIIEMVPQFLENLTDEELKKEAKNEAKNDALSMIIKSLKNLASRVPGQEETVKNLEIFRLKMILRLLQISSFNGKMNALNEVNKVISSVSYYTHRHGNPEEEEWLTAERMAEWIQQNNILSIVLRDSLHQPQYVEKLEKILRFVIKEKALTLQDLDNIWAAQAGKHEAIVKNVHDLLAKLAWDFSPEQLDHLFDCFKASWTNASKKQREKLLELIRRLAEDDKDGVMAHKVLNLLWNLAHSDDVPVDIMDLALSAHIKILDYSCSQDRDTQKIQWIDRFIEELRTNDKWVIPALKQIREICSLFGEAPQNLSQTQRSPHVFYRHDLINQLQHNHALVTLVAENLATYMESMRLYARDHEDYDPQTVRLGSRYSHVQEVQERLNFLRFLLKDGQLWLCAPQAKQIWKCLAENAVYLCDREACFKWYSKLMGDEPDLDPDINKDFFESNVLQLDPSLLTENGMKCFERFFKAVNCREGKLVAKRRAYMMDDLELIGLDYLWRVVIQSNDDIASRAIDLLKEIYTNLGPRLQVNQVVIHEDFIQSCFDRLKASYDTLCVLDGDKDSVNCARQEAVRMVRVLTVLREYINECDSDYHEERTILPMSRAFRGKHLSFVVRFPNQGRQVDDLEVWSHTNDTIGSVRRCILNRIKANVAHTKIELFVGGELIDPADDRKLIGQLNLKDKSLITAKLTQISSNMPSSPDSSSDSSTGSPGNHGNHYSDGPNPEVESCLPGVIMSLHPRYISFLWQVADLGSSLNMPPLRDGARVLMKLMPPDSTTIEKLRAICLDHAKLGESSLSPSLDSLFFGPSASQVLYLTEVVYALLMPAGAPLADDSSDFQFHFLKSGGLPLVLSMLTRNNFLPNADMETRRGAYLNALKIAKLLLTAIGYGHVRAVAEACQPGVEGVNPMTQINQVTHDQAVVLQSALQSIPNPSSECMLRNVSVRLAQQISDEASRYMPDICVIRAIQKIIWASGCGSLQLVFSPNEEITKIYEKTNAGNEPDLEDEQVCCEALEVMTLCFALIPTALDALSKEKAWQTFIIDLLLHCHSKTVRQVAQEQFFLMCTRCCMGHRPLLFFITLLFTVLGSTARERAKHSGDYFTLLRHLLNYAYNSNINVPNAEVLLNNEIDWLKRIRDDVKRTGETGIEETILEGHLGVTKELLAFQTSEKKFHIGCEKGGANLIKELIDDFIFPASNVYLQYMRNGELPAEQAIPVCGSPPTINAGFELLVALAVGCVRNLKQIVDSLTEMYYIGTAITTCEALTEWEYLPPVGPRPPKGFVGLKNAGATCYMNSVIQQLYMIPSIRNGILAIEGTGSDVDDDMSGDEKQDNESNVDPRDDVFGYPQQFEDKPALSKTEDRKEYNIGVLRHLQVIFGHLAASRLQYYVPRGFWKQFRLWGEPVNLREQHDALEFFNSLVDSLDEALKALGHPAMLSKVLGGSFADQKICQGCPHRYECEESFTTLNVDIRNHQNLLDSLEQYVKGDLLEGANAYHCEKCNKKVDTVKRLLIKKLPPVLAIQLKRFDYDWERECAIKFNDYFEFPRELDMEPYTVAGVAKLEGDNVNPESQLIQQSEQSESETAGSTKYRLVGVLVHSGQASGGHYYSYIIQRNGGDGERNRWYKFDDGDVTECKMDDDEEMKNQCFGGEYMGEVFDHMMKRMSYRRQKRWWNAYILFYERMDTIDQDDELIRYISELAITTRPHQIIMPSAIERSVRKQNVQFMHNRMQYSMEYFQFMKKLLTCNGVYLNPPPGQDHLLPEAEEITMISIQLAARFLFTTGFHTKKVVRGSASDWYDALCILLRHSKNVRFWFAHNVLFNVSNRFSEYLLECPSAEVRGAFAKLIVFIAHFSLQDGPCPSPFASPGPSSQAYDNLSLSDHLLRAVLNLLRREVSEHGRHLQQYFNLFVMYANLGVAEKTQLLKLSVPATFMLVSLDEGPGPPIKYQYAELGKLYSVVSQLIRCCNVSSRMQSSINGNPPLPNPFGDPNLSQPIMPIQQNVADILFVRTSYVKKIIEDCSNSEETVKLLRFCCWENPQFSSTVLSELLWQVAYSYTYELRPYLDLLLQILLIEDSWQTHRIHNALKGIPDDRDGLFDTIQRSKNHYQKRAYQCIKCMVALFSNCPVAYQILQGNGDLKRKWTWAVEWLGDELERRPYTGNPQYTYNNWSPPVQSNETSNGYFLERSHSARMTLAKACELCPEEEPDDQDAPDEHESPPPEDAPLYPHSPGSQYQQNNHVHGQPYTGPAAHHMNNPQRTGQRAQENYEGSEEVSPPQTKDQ

Turning to `CS(=O)(=O)c1ccc(C(=O)Nc2ccc(Cl)c(-c3ccc(C4(N)CC4)cc3)c2)c(Cl)c1`, the inhibition result in experiment [1], in experiment [2], in experiment [3] and in experiment [5] was “Active” in each case. Also, in experiment [4], the result was inactive. For the same molecule, in experiment [6], half-maximal inhibition (IC50) was put at 300 nM.
Regarding `CS(=O)(=O)c1ccc(C(=O)Nc2ccc(Cl)c(-c3ccc4c(c3)CNC4)c2)c(Cl)c1`, the inhibition entry in experiment [1], in experiment [2], in experiment [3] and in experiment [5] was “Active” each time. Further, in experiment [4], the result was inactive. For the same molecule, half-maximal inhibition in experiment [6] (IC50) was put at 40 nM.
As to `CS(=O)(=O)c1ccc(C(=O)Nc2ccc(Cl)c(-c3ccc4c(c3)CCNC4)c2)c(Cl)c1`, the inhibition result in experiment [1], in experiment [2], in experiment [3] and in experiment [5] was “Active” each time. Moreover, the outcome in experiment [4] was inactive. In experiment [6], this molecule registered an IC50 of 100 nM.
